According to patent US11453660B2, “Androgen receptor and glucocorticoid receptor modulators” (ONCOSTELLAE, S.L., priority 2017, dated 2022):

How the values were obtained:
[1] = molecular target: T1, Rat Androgen Receptor (Rattus norvegicus, UniProt P15207); experiment: Rat Androgen Receptor Binding (polarscreen AR competitor assay, fluorescence polarization); conditions: displacement of Fluormone AL Green, 4 hours at RT, read-out: AR rat-fluorimetric
T1 construct: purchased Life Technologies A15880
T1 sequence (P15207 646-902 limits assumed): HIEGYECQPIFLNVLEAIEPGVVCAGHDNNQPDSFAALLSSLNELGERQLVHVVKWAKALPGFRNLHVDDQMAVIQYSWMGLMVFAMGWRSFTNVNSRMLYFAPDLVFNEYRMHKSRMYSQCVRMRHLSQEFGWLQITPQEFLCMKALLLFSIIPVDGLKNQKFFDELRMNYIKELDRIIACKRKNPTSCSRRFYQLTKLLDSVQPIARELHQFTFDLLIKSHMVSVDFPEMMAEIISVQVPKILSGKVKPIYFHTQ
Summary of the method: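 Fluorescence-polarization competition of Fluormone AL Green binding to rat androgen receptor; compounds screened in duplicate at 1 and 10 μM, 4 h at RT, read at λexc 485/λem 535 nm. IC50 from 1:10 dilution series, 10 μM to 0.1 nM, in 1× buffer.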

[2] = molecular target: T2, AR-Receptor (Homo sapiens, UniProt P10275); experiment: Functional Assay AR-Receptor (MDA-MB-453 cells, luciferase); format: cell-based; conditions: antagonist effect in the presence of DHT 1 nM, 24 h, luciferase luminescence, read-out: AR antag KB
T2 sequence (P10275 1-920 Q868H): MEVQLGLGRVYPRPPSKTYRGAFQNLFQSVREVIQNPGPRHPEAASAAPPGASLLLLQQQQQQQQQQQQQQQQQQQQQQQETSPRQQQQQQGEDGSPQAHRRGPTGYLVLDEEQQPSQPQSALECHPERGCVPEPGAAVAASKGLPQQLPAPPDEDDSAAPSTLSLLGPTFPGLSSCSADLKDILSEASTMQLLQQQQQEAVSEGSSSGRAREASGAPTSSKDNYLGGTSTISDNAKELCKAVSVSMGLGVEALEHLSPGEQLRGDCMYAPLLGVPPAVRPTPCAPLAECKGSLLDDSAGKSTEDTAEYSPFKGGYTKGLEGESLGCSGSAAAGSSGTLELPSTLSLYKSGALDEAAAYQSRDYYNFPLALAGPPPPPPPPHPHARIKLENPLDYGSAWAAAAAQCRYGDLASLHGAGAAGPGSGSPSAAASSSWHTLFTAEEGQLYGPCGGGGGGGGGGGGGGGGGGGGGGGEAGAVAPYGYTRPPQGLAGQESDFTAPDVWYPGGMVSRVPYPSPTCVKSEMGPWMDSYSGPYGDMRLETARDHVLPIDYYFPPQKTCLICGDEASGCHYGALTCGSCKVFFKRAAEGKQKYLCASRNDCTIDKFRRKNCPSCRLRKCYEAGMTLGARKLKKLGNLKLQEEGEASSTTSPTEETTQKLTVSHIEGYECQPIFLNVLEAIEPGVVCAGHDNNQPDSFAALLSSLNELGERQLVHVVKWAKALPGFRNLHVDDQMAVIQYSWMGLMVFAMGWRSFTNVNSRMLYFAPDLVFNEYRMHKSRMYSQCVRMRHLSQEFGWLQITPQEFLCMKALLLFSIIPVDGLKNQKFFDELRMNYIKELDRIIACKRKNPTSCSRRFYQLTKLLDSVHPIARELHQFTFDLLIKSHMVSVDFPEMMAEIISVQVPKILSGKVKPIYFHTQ
Summary of the method: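 MDA-MB-453 cells, 8000/well, were switched to medium with 0.1% FBS and exposed to compounds for 24 h at 37 °C. Antagonist mode used 1 nM DHT. After lysis and a freeze-thaw cycle, luciferase luminescence was read.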

CC(=O)C1=C(C)NC(C)=C(C(=O)OCc2ccccc2)C1c1csc2ccccc12 (stereo not drawn) [Example B6, Benzyl 5-acetyl-4-(benzo[b]thiophen-3-yl)-2,6-dimethyl-1,4-dihydro-pyridine-3-carboxylate]
IC50 [1]: 100 to 1000 nM
Kb [2]: 100 to 1000 nM

CC(=O)C1=C(C)NC(C)=C(C(=O)OCC2CCOCC2)C1c1csc2ccccc12 (stereo not drawn) [Example C2, (Tetrahydro-2H-pyran-4-yl)methyl 5-acetyl-4-(benzo[b]thiophen-3-yl)-2,6-dimethyl-1,4-dihydropyridine-3-carboxylate]
IC50 [1]: 100 to 1000 nM
Kb [2]: 100 to 1000 nM

CC(=O)C1=C(C)NC(C)=C(C(=O)OCC2CC2)C1c1csc2ncccc12 (stereo not drawn) [Example C24, Cyclopropylmethyl 5-acetyl-2,6-dimethyl-4-(thieno[2,3-b]pyridin-3-yl)-1,4-dihydropyridine-3-carboxylate]
IC50 [1]: < 100 nM
Kb [2]: ≥ 1000 nM

COC(=O)C1=C(C2CC2)NC(C)=C(C(C)=O)C1c1csc2ncccc12 (stereo not drawn) [Example J23, Methyl 5-acetyl-2-cyclopropyl-6-methyl-4-(thieno[2,3-b]pyridin-3-yl)-1,4-dihydropyridine-3-carboxylate]
IC50 [1]: < 100 nM
Kb [2]: ≥ 1000 nM

COC(=O)C1=C(C2CC2)NC(C)=C(C(C)=O)C1c1csc2c(Br)cccc12 (stereo not drawn) [Example J26, Methyl 5-acetyl-4-(7-bromobenzo[b]thiophen-3-yl)-2-cyclopropyl-6-methyl-1,4-dihydropyridine-3-carboxylate]
Kb [2]: 100 to 1000 nM

CC(=O)C1=C(C)NC(C2CC2)=C(C(=O)OCc2ccncc2)C1c1csc2c(Br)cccc12 (stereo not drawn) [Example J41, Pyridin-4-ylmethyl 5-acetyl-4-(7-bromobenzo[b]thiophen-3-yl)-2-cyclopropyl-6-methyl-1,4-dihydropyridine-3-carboxylate]
Kb [2]: 100 to 1000 nM

CC(=O)C1=C(C)NC(C2CC2)=C(C(=O)OCc2ccc(F)cc2)C1c1csc2ncccc12 (stereo not drawn) [Example J42, 4-fluorobenzyl 5-acetyl-2-cyclopropyl-6-methyl-4-(thieno[2,3-b]pyridin-3-yl)-1,4-dihydropyridine-3-carboxylate]
Kb [2]: < 100 nM

CC(=O)C1=C(C)NC(C)=C(C(=O)OCc2ccc(-c3ccncc3)cc2)C1c1csc2ncccc12 (stereo not drawn) [Example L1, 4-(pyridin-4-yl)benzyl 5-acetyl-2,6-dimethyl-4-(thieno[2,3-b]pyridin-3-yl)-1,4 dihydropyridine-3-carboxylate]
Kb [2]: 100 to 1000 nM

CC(=O)C1=C(C)NC(C)=C(C(=O)OCc2ccc(-c3cccnc3)cc2)C1c1csc2ncccc12 (stereo not drawn) [Example L2, 4-(pyridin-3-yl)benzyl 5-acetyl-2,6-dimethyl-4-(thieno[2,3-b]pyridin-3-yl)-1,4-dihydropyridine-3-carboxylate]
Kb [2]: 100 to 1000 nM

CC(=O)C1=C(C)NC(C)=C(C(=O)OCc2cccc(-c3ccncc3)c2)C1c1csc2ncccc12 (stereo not drawn) [Example L3, 3-(pyridin-4-yl)benzyl 5-acetyl-2,6-dimethyl-4-(thieno[2,3-b]pyridin-3-yl)-1,4-dihydropyridine-3-carboxylate]
Kb [2]: 100 to 1000 nM

CC(=O)C1=C(C)NC(C)=C(C(=O)OCc2cccc(-c3cccnc3)c2)C1c1csc2ncccc12 (stereo not drawn) [Example L4, 3-(pyridin-3-yl)benzyl 5-acetyl-2,6-dimethyl-4-(thieno[2,3-b]pyridin-3-yl)-1,4-dihydropyridine-3-carboxylate]
Kb [2]: 100 to 1000 nM
